According to patent US20110039762A1, “TARGETED ANTIMICROBIAL MOIETIES” (C3 JIAN, INC., priority 2009, published 2011):

Key:
[1] = system: MRSA; assay: Kill or inhibit growth/proliferation; morphology, biofilm and growth disruption (Tables 5, 6); assay type: cell-based, Methicillin-resistant Staphylococcus aureus; design: key: A: Peptide aggregates; B: Less hyphal formation; Clumps; Diffuse clumps and small polyps; F: Diffuse growth; H: Thin; I: Growth inhibition; Microcolony formation; Rippled; Small polyps; Thick; W: Halo formation on top, microlonies on bottom; note: test concentration or dose not given here
[2] = system: M. luteus; assay: as above; assay type: cell-based, Micrococcus luteus; design: key: A: Peptide aggregates; B: Less hyphal formation; Clumps; Diffuse clumps and small polyps; F: Diffuse growth; H: Thin; I: Growth inhibition; Microcolony formation; Rippled; Small polyps; Thick; W: Halo formation on top, microlonies on bottom; note: test concentration or dose not given here
[3] = system: C. jejuni; assay: as above; assay type: cell-based, Campylobacter jejuni; design: key: A: Peptide aggregates; B: Less hyphal formation; Clumps; Diffuse clumps and small polyps; F: Diffuse growth; H: Thin; I: Growth inhibition; Microcolony formation; Rippled; Small polyps; Thick; W: Halo formation on top, microlonies on bottom; note: test concentration or dose not given here
[4] = system: P. aeruginosa; assay: as above; assay type: cell-based, Pseudomonas aeruginosa; design: key: A: Peptide aggregates; B: Less hyphal formation; Clumps; Diffuse clumps and small polyps; F: Diffuse growth; H: Thin; I: Growth inhibition; Microcolony formation; Rippled; Small polyps; Thick; W: Halo formation on top, microlonies on bottom; note: test concentration or dose not given here
[5] = system: C. jeikeium; assay: as above; assay type: cell-based, Corynebacterium jeikeium; design: key: A: Peptide aggregates; B: Less hyphal formation; Clumps; Diffuse clumps and small polyps; F: Diffuse growth; H: Thin; I: Growth inhibition; Microcolony formation; Rippled; Small polyps; Thick; W: Halo formation on top, microlonies on bottom; note: test concentration or dose not given here
[6] = system: C. albicans; assay: as above; assay type: cell-based, Candida albicans; design: key: A: Peptide aggregates; B: Less hyphal formation; Clumps; Diffuse clumps and small polyps; F: Diffuse growth; H: Thin; I: Growth inhibition; Microcolony formation; Rippled; Small polyps; Thick; W: Halo formation on top, microlonies on bottom; note: test concentration or dose not given here
[7] = system: microorganisms; assay: Peptides having multiple activities (targeting/binding, antimicrobial, growth or phenotype altering)
Excerpt: In certain embodiments, peptides described herein can have multiple activities. Thus for example, a peptide can have both binding/targeting activity and antimicrobial activity. Such peptides can be used, e.g., in a chimeric construct, for any or all of these properties. Thus, for example, a peptide designated “B” in Table 8 can be used as a targeting peptide. If it is also designated G or M it can also be used for antimicrobial activity.

[8] = system: S. epidermidis; assay: Kill or inhibit growth/proliferation; morphology, biofilm and growth disruption (Tables 5, 6); assay type: cell-based, Staphylococcus epidermidis; design: key: A: Peptide aggregates; B: Less hyphal formation; Clumps; Diffuse clumps and small polyps; F: Diffuse growth; H: Thin; I: Growth inhibition; Microcolony formation; Rippled; Small polyps; Thick; W: Halo formation on top, microlonies on bottom; note: test concentration or dose not given here
[9] = system: S. pneumoniae; assay: as above; assay type: cell-based, Streptococcus pneumoniae; design: key: A: Peptide aggregates; B: Less hyphal formation; Clumps; Diffuse clumps and small polyps; F: Diffuse growth; H: Thin; I: Growth inhibition; Microcolony formation; Rippled; Small polyps; Thick; W: Halo formation on top, microlonies on bottom; note: test concentration or dose not given here
[10] = system: E. faecalis; assay: as above; assay type: cell-based, Enterococcus faecalis; design: key: A: Peptide aggregates; B: Less hyphal formation; Clumps; Diffuse clumps and small polyps; F: Diffuse growth; H: Thin; I: Growth inhibition; Microcolony formation; Rippled; Small polyps; Thick; W: Halo formation on top, microlonies on bottom; note: test concentration or dose not given here
[11] = system: microorganisms (e.g., bacteria, yeasts, fungi); assay: Targeting peptide binding to target microorganisms (Table 3); details: microorganism(s) the targeting peptide binds; peptide binding conducted in aqueous buffers varied by peptide solubility, preferably 1x PBS
[12] = system: E. coli; assay: Kill or inhibit growth/proliferation; morphology, biofilm and growth disruption (Tables 5, 6); assay type: cell-based, Escherichia coli; design: key: A: Peptide aggregates; B: Less hyphal formation; Clumps; Diffuse clumps and small polyps; F: Diffuse growth; H: Thin; I: Growth inhibition; Microcolony formation; Rippled; Small polyps; Thick; W: Halo formation on top, microlonies on bottom; note: test concentration or dose not given here
[13] = system: B. subtilis; assay: as above; assay type: cell-based, Bacillus subtilis; design: key: A: Peptide aggregates; B: Less hyphal formation; Clumps; Diffuse clumps and small polyps; F: Diffuse growth; H: Thin; I: Growth inhibition; Microcolony formation; Rippled; Small polyps; Thick; W: Halo formation on top, microlonies on bottom; note: test concentration or dose not given here

Substance | Organism, effect [1] | Organism, effect [3] | Organism, effect [4] | Organism, effect [6] | Activities [7] | Organism, effect [8] | Organism, effect [9] | Organism, effect [10] | Organism, effect [12] | further results
PF-140: peptide having multiple activities (FHRRVIRASEWALTTRSFSTPLRSAAR; Peptide with targeting and/or antimicrobial activity) | MRSA (M) | C. jejuni (D) | P. aeruginosa (A) | C. albicans (B) | G B | S. epidermidis (D) | S. pneumoniae (D) | – | – | Organism, effect [2]: M. luteus (R); Organism, effect [5]: C. jeikeium (D)
PF-425: peptide having multiple activities (MMELVLKTIIGPIVVGVVLRIVDKWLNKDK; Peptide with targeting and/or antimicrobial activity) | MRSA (D) | C. jejuni (D) | P. aeruginosa (A) | C. albicans (A) | G B | S. epidermidis (D) | S. pneumoniae (D) | E. faecalis (D) | E. coli (C) | Target(s) [11]: S. epidermidis and M. luteus and E. coli and P. aeruginosa and C. albicans and MRSA and S. pneumoniae and C. jeikeium
PF-474: peptide having multiple activities (chain 1 MHRNLVLVKMEPIPHIMIIANQIGIIIEKA; chain 2 MHRNLVLVKMEPIPHIMIIANQIGIIIEKA; Peptide with targeting and/or antimicrobial activity) | MRSA (D) | C. jejuni (D) | P. aeruginosa (A) | C. albicans (B) | G B | S. epidermidis (C) | S. pneumoniae (D) | E. faecalis (C) | E. coli (C) | –
PF-605: peptide having multiple activities (HYRWNTQWWKY; Peptide with targeting and/or antimicrobial activity) | MRSA (C) | C. jejuni (R) | P. aeruginosa (A) | C. albicans (B) | G B | S. epidermidis (R) | S. pneumoniae (D) | E. faecalis (R) | E. coli (C) | –
PF-S003: peptide having multiple activities (ALALLKQDLLNFEGRGRIITSTYLQFNEGCVP; Peptide with targeting and/or antimicrobial activity) | – | – | – | – | G B | – | – | – | – | Organism, effect (morphology, biofilm and growth disruption) [1]: MRSA (M); Organism, effect (morphology, biofilm and growth disruption) [2]: M. luteus (R); Organism, effect (morphology, biofilm and growth disruption) [3]: C. jejuni (D); Organism, effect (morphology, biofilm and growth disruption) [4]: P. aeruginosa (A); Organism, effect (morphology, biofilm and growth disruption) [13]: B. subtilis (A); Organism, effect (morphology, biofilm and growth disruption) [5]: C. jeikeium (D); Organism, effect (morphology, biofilm and growth disruption) [6]: C. albicans (A); Organism, effect (morphology, biofilm and growth disruption) [8]: S. epidermidis (R); Organism, effect (morphology, biofilm and growth disruption) [9]: S. pneumoniae (D)
